Reference: patent US9630961B2, “Arginine methyltransferase inhibitors and uses thereof” (Epizyme, Inc., priority 2013, dated 2017)

target: T1, PRMT1 (Homo sapiens, UniProt Q99873); test: PRMT1 Biochemical Assay (3H-SAM Flashplate, peptide substrate); conditions: 30 min preincubation, room temperature
T1 construct: GST-tagged PRMT1; made in house; host or cells: High Five insect cells (baculovirus)
From the text: S-adenosylmethionine (SAM), S-adenosylhomocysteine (SAH), bicine, Tween20, dimethylsulfoxide (DMSO), bovine skin gelatin (BSG), and Tris(2-carboxyethyl)phosphine hydrochloride solution (TCEP) were purchased from Sigma-Aldrich at the highest level of purity possible. ^3H-SAM was purchase from American Radiolabeled Chemicals with a specific activity of 80 Ci/mmol. 384-well streptavidin Flashplates were purchased from PerkinElmer.
Peptide representative of human histone H4 residues 36-50 was synthesized with an N-terminal linker-affinity tag motif and a C-terminal amide cap by 21st Century Biochemicals. The peptide was purified by high-performance liquid chromatography (HPLC) to greater than 95% purity and confirmed by liquid chromatography mass spectrometry (LC-MS). The sequence was Biot-Ahx-[…]-amide (SEQ ID NO.: 1).
Full-length human PRMT1 isoform 1 (NM_001536.5) transcript clone was amplified from an HEK 293 cDNA library, incorporating flanking 5′ sequence encoding a FLAG tag ([…]) (SEQ ID NO.:2) fused directly to Met 1 of PRMT1. The amplified gene was subcloned into pFastBacI (Life Technologies) modified to encode an N-terminal GST tag and a TEV cleavage sequence ([…] […] […] […]) (SEQ ID NO.:3) fused to Asp of the Flag tag of PRMT1.
Recombinant baculovirus were generated according to Bac-to-Bac kit instructions (Life Technologies). Protein over-expression was accomplished by infecting exponentially growing High Five insect cell culture at 1.5×10^6 cell/ml with 1:100 ratio of virus. Infections were carried out at 27° C. for 48 hours, harvested by centrifugation, and stored at −80° C. for purification.
General Procedure for PRMT1 Enzyme Assays on Peptide Substrates.
The assays were all performed in a buffer consisting of 20 mM Bicine (pH=7.6), 1 mM TCEP, 0.005% BSG, and 0.002% Tween 20, prepared on the day of use. Compounds in 100% DMSO (1 ul) were spotted into a polypropylene 384-well V-bottom plates (Greiner) using a Platemate Plus outfitted with a 384-channel head (Thermo Scientific). DMSO (1 ul) was added to Columns 11, 12, 23, 24, rows A-H for the maximum signal control and 1 ul of SAH, a known product and inhibitor of PRMT1, was added to columns 11, 12, 23, 24, rows I-P for the minimum signal control. A cocktail (40 ul) containing the PRMT1 enzyme was added by Multidrop Combi (Thermo-Fisher). The compounds were allowed to incubate with PRMT1 for 30 min at room temperature, then a cocktail (10 ul) containing SAM and peptide was added to initiate the reaction (final volume=51 ul). The final concentrations of the components were as follows: PRMT1 was 0.5 nM, ^3H-SAM was 200 nM, non-radiolabeled SAM was 1.5 uM, peptide was 20 nM, SAH in the minimum signal control wells was 1 mM, and the DMSO concentration was 2%. The assays were stopped by the addition of non-radiolabeled SAM (10 ul) to a final concentration of 300 uM, which dilutes the ^3H-SAM to a level where its incorporation into the peptide substrate is no longer detectable. 50 ul of the reaction in the 384-well polypropylene plate was then transferred to a 384-well Flashplate and the biotinylated peptides were allowed to bind to the streptavidin surface for at least 1 hour before being washed once with 0.1% Tween20 in a Biotek ELx405 plate washer. The plates were then read in a PerkinElmer TopCount plate reader to measure the quantity of ^3H-labeled peptide bound to the Flashplate surface, measured as disintegrations per minute (dpm) or alternatively, referred to as counts per minute (cpm).
Where dpm=disintegrations per minute, cmpd=signal in assay well, and min and max are the respective minimum and maximum signal controls.
Where top and bottom are the normally allowed to float, but may be fixed at 100 or 0 respectively in a 3-parameter fit. The Hill Coefficient normally allowed to float but may also be fixed at 1 in a 3-parameter fit. Y is the % inhibition and X is the compound concentration.

T1 sequence (Q99873 with tags, fused parts or gaps): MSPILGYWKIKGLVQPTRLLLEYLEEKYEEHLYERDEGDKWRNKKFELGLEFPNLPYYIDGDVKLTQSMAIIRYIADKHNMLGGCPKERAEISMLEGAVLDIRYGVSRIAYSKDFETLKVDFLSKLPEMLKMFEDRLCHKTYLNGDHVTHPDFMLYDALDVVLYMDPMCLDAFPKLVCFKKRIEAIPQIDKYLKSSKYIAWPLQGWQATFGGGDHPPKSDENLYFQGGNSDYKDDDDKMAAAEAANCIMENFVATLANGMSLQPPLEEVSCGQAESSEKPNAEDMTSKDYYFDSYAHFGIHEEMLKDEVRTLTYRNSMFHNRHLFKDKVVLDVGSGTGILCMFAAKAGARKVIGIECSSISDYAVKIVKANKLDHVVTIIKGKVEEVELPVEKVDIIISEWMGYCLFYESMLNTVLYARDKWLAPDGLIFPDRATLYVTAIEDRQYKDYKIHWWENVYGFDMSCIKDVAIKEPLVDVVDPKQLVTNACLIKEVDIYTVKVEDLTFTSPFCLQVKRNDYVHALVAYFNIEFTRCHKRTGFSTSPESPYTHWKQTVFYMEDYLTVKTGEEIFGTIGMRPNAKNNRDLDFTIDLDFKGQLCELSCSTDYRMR

SMILES | IC50
CN(CCN)Cc1c[nH]nc1-c1ccsc1 [Compound 3] | 101 to 1000 nM
CN(CCN)Cc1c[nH]nc1-c1ccc2ncnn2c1 [Compound 20] | ≤ 100 nM
Cc1noc(C)c1-c1n[nH]cc1CN(C)CCN [Compound 10] | ≥ 10000 nM
CN(CCN)Cc1c[nH]nc1-c1ccoc1 [Compound 7] | 101 to 1000 nM
CN(CCN)Cc1c[nH]nc1-c1cnn(Cc2ccccc2)c1 [Compound 24, N^1-((1′-benzyl-3,4′-bi(1H-pyrazol)-4-yl)methyl)-N^1-methylethane-1,2-diamine] | ≤ 100 nM
Cc1n[nH]c(C)c1-c1n[nH]cc1CN(C)CCN [Compound 25] | ≥ 10000 nM
CN(CCN)Cc1c[nH]nc1-c1cn[nH]c1 [Compound 12] | 101 to 1000 nM
CN(CCN)Cc1c[nH]nc1-c1ccc2nccn2c1 [Compound 21, N^1-((3-(imidazo[1,2-a]pyridin-6-yl)-1H-pyrazol-4-yl)methyl)-N^1-methylethane-1,2-diamine] | ≤ 100 nM
CN(CCN)Cc1c[nH]nc1-c1ccc[nH]1 [Compound 29] | 1010 to 3000 nM
CN(CCN)Cc1c[nH]nc1-c1cncnc1 [Compound 4] | 101 to 1000 nM
CC(C)n1cc(-c2n[nH]cc2CN(C)CCN)cn1 [Compound 22] | ≤ 100 nM
CN(CCN)Cc1c[nH]nc1-c1cnc2[nH]ccc2c1 [Compound 13] | ≤ 100 nM

Further lines, results first:

IC50 | SMILES
101 to 1000 nM | CN(CCN)Cc1c[nH]nc1-c1cccs1 [Compound 5]
1010 to 3000 nM | CN(CCN)Cc1c[nH]nc1-c1cc[nH]n1 [Compound 14]
≤ 100 nM | CN(CCN)Cc1c[nH]nc1-c1ccc2[nH]ncc2c1 [Compound 27, N^1-((3-(1H-indazol-5-yl)-1H-pyrazol-4-yl)methyl)-N^1-methylethane-1,2-diamine]
101 to 1000 nM | CN(CCN)Cc1c[nH]nc1-c1cnn(CCO)c1 [Compound 18]
≤ 100 nM | CN(CCN)Cc1c[nH]nc1-c1cnn(-c2ccccc2)c1 [Compound 17]
101 to 1000 nM | CN(CCN)Cc1c[nH]nc1-c1cccc2[nH]ncc12 [Compound 30]
1010 to 3000 nM | CN(CCN)Cc1c[nH]nc1-c1ccnn1C [Compound 15]
101 to 1000 nM | CN(CCN)Cc1c[nH]nc1-c1cnn(C)c1 [Compound 8]
101 to 1000 nM | COc1ncc(-c2n[nH]cc2CN(C)CCN)cn1 [Compound 11]
≤ 100 nM | CN(CCN)Cc1c[nH]nc1-c1ccc2scnc2c1 [Compound 9]
101 to 1000 nM | CN(CCN)Cc1c[nH]nc1-c1cnc(C2CC2)nc1 [Compound 28]
≤ 100 nM | CN(CCN)Cc1c[nH]nc1-c1ccc2cnn(C)c2c1 [Compound 19, N^1-methyl-N^1-((3-(1-methyl-1H-indazol-6-yl)-1H-pyrazol-4-yl)methyl)ethane-1,2-diamine]
≤ 100 nM | CC(C)Cn1cc(-c2n[nH]cc2CN(C)CCN)cn1 [Compound 23, N^1-((2′-isobutyl-3,4′-bi(1H-pyrazol)-4-yl)methyl)-N^1-methylethane-1,2-diamine]
≤ 100 nM | CCn1cc(-c2n[nH]cc2CN(C)CCN)cn1 [Compound 16]
101 to 1000 nM | CN(CCN)Cc1c[nH]nc1-c1ccco1 [Compound 6]
